Tests used:
[1] = Stability to Phase I metabolism in rat S9 liver fraction; conditions: after 90 minutes, 37° C.
Protocol: (§1) Test compounds were incubated in rat and human liver S9 fraction at 37° C. up to 90 minutes in order to evaluate their stability to Phase I metabolism by hepatic enzymes. Each test compound was incubated at μM concentration (50 μM when the samples were analysed by UV/HPLC, 1 or 2 μM when the samples were analysed by LC-MS/MS) with S9 fraction (protein content 2 mg/m L) in 100 mM phosphate buffer (pH 7.4), 3.3 mM MgCl2 and 1.3 mM NADPH for 0, 10, 30, 60 and 90 minutes at 37° C. in a thermostated oscillating bath. The reaction was stopped placing samples on ice bath and adding acidified acetonitrile. After centrifugation (10 minutes at 14000 rpm) an aliquot of the supernatant was diluted with water, filtered with 0.45 μm regenerated cellulose syringe filters and injected in HPLC-UV or in LC-MS/MS. The percentage of the remaining amount at the various incubation times with respect to the initial amount were calculated.

recombinant human HDAC1 = recombinant human HDAC1 (Homo sapiens (Human), UniProt Q13547); assay: Enzymatic screening, HDAC1 inhibition (fluorogenic FdL_G substrate); type: biochemical
In short: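 Recombinant human HDAC1 inhibition was measured fluorometrically using the FLUOR DE LYS-Green (FdL_G) substrate. Compounds at 8 doses (1% DMSO final) in Tris-HCl pH 8 buffer with NaCl, Tween-20 and glycerol were preincubated in triplicate with enzyme and 1 mg/mL BSA, then given substrate. Developer I plus 2 μM TSA was added, and fluorescence read after 25 minutes in the dark.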

Stability in rat plasma = conditions: after 4 hours, 37° C.
recombinant human HDAC6 = recombinant human HDAC6 (Homo sapiens (Human), UniProt Q9UBN7); assay: Enzymatic screening, HDAC6 inhibition (fluorogenic FdL_G substrate); type: biochemical
recombinant human HDAC6, sequence (Q9UBN7 whole entry): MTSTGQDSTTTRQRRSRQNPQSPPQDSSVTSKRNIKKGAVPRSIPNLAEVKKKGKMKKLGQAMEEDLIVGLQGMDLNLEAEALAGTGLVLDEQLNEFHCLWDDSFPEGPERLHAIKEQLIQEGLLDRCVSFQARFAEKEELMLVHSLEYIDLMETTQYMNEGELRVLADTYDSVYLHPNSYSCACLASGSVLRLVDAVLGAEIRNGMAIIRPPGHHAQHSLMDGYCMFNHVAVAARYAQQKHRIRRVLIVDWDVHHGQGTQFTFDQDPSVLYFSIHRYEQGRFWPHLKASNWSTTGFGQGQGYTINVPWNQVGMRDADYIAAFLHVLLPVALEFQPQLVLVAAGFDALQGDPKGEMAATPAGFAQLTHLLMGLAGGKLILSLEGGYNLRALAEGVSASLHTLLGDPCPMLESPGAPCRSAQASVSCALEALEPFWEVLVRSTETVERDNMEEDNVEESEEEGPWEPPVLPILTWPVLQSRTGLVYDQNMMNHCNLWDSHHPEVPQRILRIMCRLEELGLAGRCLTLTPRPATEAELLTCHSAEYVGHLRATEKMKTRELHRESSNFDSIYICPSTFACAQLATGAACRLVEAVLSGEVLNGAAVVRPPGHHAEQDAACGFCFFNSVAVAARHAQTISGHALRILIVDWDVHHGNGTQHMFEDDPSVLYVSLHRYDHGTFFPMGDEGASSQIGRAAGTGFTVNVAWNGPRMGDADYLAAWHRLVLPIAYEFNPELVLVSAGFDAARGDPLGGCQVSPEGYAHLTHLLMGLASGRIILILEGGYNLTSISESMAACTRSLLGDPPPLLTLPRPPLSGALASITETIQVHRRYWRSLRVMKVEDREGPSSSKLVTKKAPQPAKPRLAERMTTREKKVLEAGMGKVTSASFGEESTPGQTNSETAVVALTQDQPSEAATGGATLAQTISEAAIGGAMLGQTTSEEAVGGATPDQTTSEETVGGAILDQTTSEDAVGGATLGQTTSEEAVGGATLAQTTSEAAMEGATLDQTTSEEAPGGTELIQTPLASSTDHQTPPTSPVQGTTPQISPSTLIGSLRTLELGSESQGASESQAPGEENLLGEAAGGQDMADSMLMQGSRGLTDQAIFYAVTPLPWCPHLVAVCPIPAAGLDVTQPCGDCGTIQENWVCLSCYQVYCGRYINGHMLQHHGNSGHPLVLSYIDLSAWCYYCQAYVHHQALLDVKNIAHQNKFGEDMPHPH
In short: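 Enzyme was preincubated with compound (8 doses, triplicate, 1% DMSO) in 25 mM Tris-HCl pH 8, 130 mM NaCl, 0.05% Tween-20, 10% glycerol, with BSA. A FLUOR DE LYS-Green substrate was then added, and fluorescence was read after developer plus 2 μM TSA.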

[2] = Stability in human plasma; conditions: after 4 hours, 37° C.
[3] = Stability to Phase I metabolism in human S9 liver fraction; conditions: after 90 minutes, 37° C.
Protocol: as §1

recombinant human HDAC1, sequence (Q13547 whole entry): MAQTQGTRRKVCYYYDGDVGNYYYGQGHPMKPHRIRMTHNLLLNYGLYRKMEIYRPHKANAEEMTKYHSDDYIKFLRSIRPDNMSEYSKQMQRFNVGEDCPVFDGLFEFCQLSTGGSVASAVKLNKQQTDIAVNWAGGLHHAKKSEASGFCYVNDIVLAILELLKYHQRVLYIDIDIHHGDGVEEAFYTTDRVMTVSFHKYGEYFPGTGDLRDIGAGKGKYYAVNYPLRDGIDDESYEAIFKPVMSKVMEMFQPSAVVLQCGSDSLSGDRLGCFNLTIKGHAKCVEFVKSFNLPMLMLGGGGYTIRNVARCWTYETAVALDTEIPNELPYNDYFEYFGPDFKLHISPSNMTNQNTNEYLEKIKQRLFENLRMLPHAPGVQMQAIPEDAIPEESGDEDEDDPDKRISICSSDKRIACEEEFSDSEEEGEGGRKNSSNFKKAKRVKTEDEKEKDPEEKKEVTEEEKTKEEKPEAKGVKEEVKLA

Row | SMILES | residual percentage in RAT S9 FRACTION [1] [%] | IC50 (recombinant human HDAC1) [nM] | residual percentage in RAT PLASMA (Stability in rat plasma) [%] | IC50 (recombinant human HDAC6) [nM] | residual percentage in HUMAN PLASMA [2] [%] | residual percentage in HUMAN S9 FRACTION [3] [%]
1 | NC(=O)c1cccc(-c2nnn(Cc3ccc(-c4nnc(C(F)F)o4)cc3F)n2)c1 [compound 50, 3-(2-(4-(5-(difluoromethyl)-1,3,4-oxadiazol-2-yl)-2-fluorobenzyl)-2H-tetrazol-5-yl)benzamide] | 66 | > 200000 | 87 | 22 | 89 | 95
2 | CC(c1ccc(-c2nnc(C(F)F)o2)c(F)c1)n1cc(-c2ccc(N)nc2)nn1 (stereo not drawn) [compound 186, 5-(1-(1-(4-(5-(difluoromethyl)-1,3,4-oxadiazol-2-yl)-3-fluorophenyl)ethyl)-1H-1,2,3-triazol-4-yl)pyridin-2-amine] | 90 | > 200000 | 86 | 98 | 94 | 88
3 | O=C(c1cccc(-c2nnn(Cc3ccc(-c4nnc(C(F)F)o4)cc3F)n2)c1)N1CCOCC1 [compound 93, (3-(2-(4-(5-(difluoromethyl)-1,3,4-oxadiazol-2-yl)-2-fluorobenzyl)-2H-tetrazol-5-yl)phenyl)(morpholino)methanone] | 59 | > 200000 | 79 | 36 | 74 | 72
4 | CC(=O)Nc1cccc(-c2cn(Cc3ccc(-c4nnc(C(F)F)o4)cn3)nn2)c1 [compound 37, N-(3-(1-((5-(5-(difluoromethyl)-1,3,4-oxadiazol-2-yl)pyridin-2-yl)methyl)-1H-1,2,3-triazol-4-yl)phenyl)acetamide] | 78 | > 200000 | 83 | 17 | 90 | 71
5 | Nc1ccc(-c2nnn(Cc3ccc(-c4nnc(C(F)F)o4)cc3)n2)cn1 [compound 64, 5-(2-(4-(5-(difluoromethyl)-1,3,4-oxadiazol-2-yl)benzyl)-2H-tetrazol-5-yl)pyridin-2-amine] | 9 | > 200000 | 70 | 28 | 69 | 103
6 | O=C1Nc2ccc(-c3cn(Cc4ccc(-c5nnc(C(F)F)o5)cn4)nn3)cc2[C@@]12CCNC2 (single isomer, unassigned) [compound 273, 5-(1-((5-(5-(difluoromethyl)-1,3,4-oxadiazol-2-yl)pyridin-2-yl)methyl)-1H-1,2,3-triazol-4-yl)spiro[indoline-3,3′-pyrrolidin]-2-one] | 99 | > 200000 | 74 | 22 | 83 | 92
7 | Nc1nc2ccc(-c3cn(Cc4ccc(-c5nnc(C(F)F)o5)cn4)nn3)cc2[nH]1 [Compd. 30, 6-(1-((5-(5-(difluoromethyl)-1,3,4-oxadiazol-2-yl)pyridin-2-yl)methyl)-1H-1,2,3-triazol-4-yl)-1H-benzo[d]imidazol-2-amine] | 96 | > 200000 | 68 | 10 | 87 | 80
8 | NC(=O)c1cccc(-c2nnn(Cc3ccc(-c4nnc(C(F)F)o4)cc3)n2)c1 [compound 75, 3-(2-(4-(5-(difluoromethyl)-1,3,4-oxadiazol-2-yl)benzyl)-2H-tetrazol-5-yl)benzamide] | 90 | > 200000 | 76 | 32 | 96 | 85
9 | Fc1cc(-c2nnc(C(F)F)o2)cc(F)c1Cn1cc(-c2cnc3cccnn23)nn1 [compound 67, 2-(3,5-difluoro-4-((4-(imidazo[1,2-b]pyridazin-3-yl)-1H-1,2,3-triazol-1-yl)methyl)phenyl)-5-(difluoromethyl)-1,3,4-oxadiazole] | 39 | > 200000 | 74 | 29 | 74 | 77
10 | FC(F)c1nnc(-c2ccc(Cn3nnc(-c4csc5ccccc45)n3)cc2)o1 [compound 207, 2-(4-((5-(benzo[b]thiophen-3-yl)-2H-tetrazol-2-yl)methyl)phenyl)-5-(difluoromethyl)-1,3,4-oxadiazole] | 0 | 999000 | 70 | 129 | 91 | 72
11 | CC(=O)Nc1cc(-c2nnn(Cc3ccc(-c4nnc(C(F)F)o4)cc3)n2)cnc1C [compound 133, N-(5-(2-(4-(5-(difluoromethyl)-1,3,4-oxadiazol-2-yl)benzyl)-2H-tetrazol-5-yl)-2-methylpyridin-3-yl)acetamide] | 78 | > 200000 | 69 | 51 | 88 | 98
12 | Nc1cncc(-c2nnn(Cc3ccc(-c4nnc(C(F)F)o4)cc3)n2)c1 [compound 90, 5-(2-(4-(5-(difluoromethyl)-1,3,4-oxadiazol-2-yl)benzyl)-2H-tetrazol-5-yl)pyridin-3-amine] | 13 | > 200000 | 88 | 34 | 80 | 83
13 | FC(F)c1nnc(-c2ccc(Cn3nnc(-c4cccc(-c5nc6c([nH]5)CCNC6)c4)n3)cc2)o1 [compound 108, 2-(difluoromethyl)-5-(4-((5-(3-(4,5,6,7-tetrahydro-1H-imidazo[4,5-c]pyridin-2-yl)phenyl)-2H-tetrazol-2-yl)methyl)phenyl)-1,3,4-oxadiazole] | 68 | 66600 | 77 | 45 | 78 | 96
14 | Nc1ccc(-c2nnc(Cc3ccc(-c4nnc(C(F)F)o4)cc3)o2)cn1 [Compd. 218, 5-(5-(4-(5-(difluoromethyl)-1,3,4-oxadiazol-2-yl)benzyl)-1,3,4-oxadiazol-2-yl)pyridin-2-amine] | 89 | > 200000 | 69 | 156 | 92 | 86
15 | FC(F)c1nnc(-c2ccc(Cn3nnc(-c4ccc5ccccc5n4)n3)cc2)o1 [compound 113, 2-(difluoromethyl)-5-(4-((5-(quinolin-2-yl)-2H-tetrazol-2-yl)methyl)phenyl)-1,3,4-oxadiazole] | 85 | > 200000 | 92 | 43 | 75 | 76

From patent US20230286970A1, “NOVEL OXADIAZOLE-BASED SELECTIVE HDAC6 INHIBITORS” (ITALFARMACO S.P.A., priority 2020, published 2023)
